In US20240279221A1, “HETEROCYCLIC COMPOUNDS AND METHODS OF USE” (Schrödinger, Inc., priority 2021, published 2024):

What follows are molecules tested against SOS1:KRAS (G12C) interaction (Homo sapiens (Human), UniProt Q07889) (assay: SOS1-KRas(G12C) FRET Assay). Details: 0.5 nM His10-SOS1 (res. 564-1049), 2.5 nM GST-KRAS (res. 1-169, G12C); read-out: SOS-KRas(G12C) FRET IC50.
Type: binding
Experimental: Inhibition of the SOS1:KRAS interaction was measured using purified GST-tagged KRAS (res. 1-169, G12C, purified based on Hillig, et al., Proc Natl Acad Sci USA (2019); 116(7):2551-2560) and recombinant His10-SOS1 (res. 564-1049; purified based on Hillig, et al.). The final assay was performed at 20 uL with 0.5 nM SOS1 protein and 2.5 nM KRAS protein in a buffer of PBS, 0.1% BSA, 5 mM MgCl2, 0.0025% Igepal, 100 mM KF, 5 mM DTT in a white 384 square well OptiPlate (PerkinElmer, Cat. 6007290). A 2× KRAS working solution was prepared in an assay buffer containing 5 nM GST-KRAS G12C and 2 nM anti-GST-Eu(K) (Cisbio, Cat. 61GSTKLA) and pre-incubated for 15 minutes at 25° C. Compounds were serially diluted in 100% DMSO from 2 mM (positive control, compound I-13, PCT Publ. No. WO2018/115380) or 20 mM and then diluted 1:20 in assay buffer before incubation with a solution of SOS1 protein mixed 1:5 with anti-6His-XL665 FRET donor (Cisbio, Cat. 61HISXL) for 15 minutes at 25° C. before addition of 2× KRAS working solution. The final DMSO concentration is 0.5%. Plates were incubated at RT for 2 hrs before the FRET signal was measured using Envision at emission 665 nm and 615 nm. FRET signal was converted to percentage of protein-protein interaction using the following equation:
[formula] • C: signal with compound treatment • P: signal for positive control (DMSO) • N: signal for negative control (no SOS1 added) • IC50 and Hill coefficients were obtained using Graph Pad Prism (Graph Pad software, Inc, USA) with non-linear regression analysis.

Sequence of SOS1:KRAS (G12C) interaction (Q07889 564-1049, stated change not applied): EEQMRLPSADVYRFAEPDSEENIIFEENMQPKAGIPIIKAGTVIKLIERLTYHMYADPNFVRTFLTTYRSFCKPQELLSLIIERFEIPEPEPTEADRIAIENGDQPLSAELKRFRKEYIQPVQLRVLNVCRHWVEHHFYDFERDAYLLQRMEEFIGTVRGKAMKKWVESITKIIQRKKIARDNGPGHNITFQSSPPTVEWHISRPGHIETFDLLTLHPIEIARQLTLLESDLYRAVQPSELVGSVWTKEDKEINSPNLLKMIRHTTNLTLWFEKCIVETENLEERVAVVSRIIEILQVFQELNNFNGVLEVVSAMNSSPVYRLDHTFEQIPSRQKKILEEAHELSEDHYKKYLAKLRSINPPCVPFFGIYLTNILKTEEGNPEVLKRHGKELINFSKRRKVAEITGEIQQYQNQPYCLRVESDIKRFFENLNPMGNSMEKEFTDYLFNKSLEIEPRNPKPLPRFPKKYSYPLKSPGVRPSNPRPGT

IC50 [nM]	SMILES
> 100000	C[C@H](Nc1nn(C)c(=O)c2cc(=O)n(C3CC3)cc12)c1cccc2sccc12 [Example 65, (S)-4-((1-(benzo[b]thiophen-4-yl)ethyl)amino)-6-cyclopropyl-2-methyl-2,6-dihydropyrido[3,4-d]pyridazine-1,7-dione]
91.2	C[C@@H](Nc1nn(C)c(=O)c2cc(=O)n([C@H]3C[C@@H]3C(F)(F)F)cc12)c1cccc(C(F)F)c1F (single isomer, unassigned) [Example 137]
60.8	C[C@@H](Nc1nn(C)c(=O)c2cc(=O)n([C@H]3C[C@@H]3c3cncc(F)c3)cc12)c1cccc(C(F)F)c1F (single isomer, unassigned) [Example 93]
152	C[C@@H](Nc1nn(C)c(=O)c2cc(=O)n([C@@H]3CC3(C)C)cc12)c1cccc(C(F)F)c1F (single isomer, unassigned) [Example 132]
75.6	C[C@@H](Nc1nn(C)c(=O)c2cc(=O)n(C3(C(F)F)CC3)cc12)c1cccc2c(F)coc12 [Example 163, (R)-6-(1-(difluoromethyl)cyclopropyl)-4-((1-(3-fluorobenzofuran-7-yl)ethyl)amino)-2-methyl-2,6-dihydropyrido[3,4-d]pyridazine-1,7-dione]
2440	C[C@@H](Nc1nn(C)c(=O)c2cc(=O)n(C3CC3)cc12)c1ccc2ccccc2c1 [Example 182, (R)-6-cyclopropyl-2-methyl-4-((1-(naphthalen-2-yl)ethyl)amino)-2,6-dihydropyrido[3,4-d]pyridazine-1,7-dione]
9.03	CC(=O)N1CC[C@@](n2cc3c(N[C@H](C)c4cccc(C(F)F)c4F)nn(C)c(=O)c3cc2=O)(C(F)(F)F)C1 (single isomer, unassigned) [Example 99]
989	C[C@@H](Nc1nn(C)c(=O)c2cc(=O)n([C@]3(C(F)(F)F)CCN(C)C3)cc12)c1cccc(C(F)F)c1F (single isomer, unassigned) [Example 98]
34.8	C[C@@H](Nc1nn(C)c(=O)c2cc(=O)n([C@@]3(C(F)(F)F)CCOC3)cc12)c1cccc2c(F)coc12 (single isomer, unassigned) [Example 166]
77.2	C[C@@H](Nc1nn(C)c(=O)c2cc(=O)n([C@]34C[C@H]3CN(C(=O)C3CC3)C4)cc12)c1cccc(C(F)F)c1F (single isomer, unassigned) [Example 142]
40.5	C[C@@H](Nc1nn(C)c(=O)c2cc(=O)n([C@]34COC[C@H]3C4)cc12)c1cccc(C(F)F)c1F [Example 148, 4-[[(1R)-1-[3-(difluoromethyl)-2-fluoro-phenyl]ethyl]amino]-2-methyl-6-[(1S,5S)-3-oxabicyclo[3.1.0]hexan-1-yl]pyrido[3,4-d]pyridazine-1,7-dione]
29.2	C[C@@H](Nc1nn(C)c(=O)c2cc(=O)n([C@@]3(C(F)(F)F)CCNC3)cc12)c1cccc(C(F)F)c1F (single isomer, unassigned) [Example 96]
1740	CC(=O)N1CC[C@](n2cc3c(N[C@H](C)c4cccc5c4OCC5(F)F)nn(C)c(=O)c3cc2=O)(C(F)(F)F)C1 (single isomer, unassigned) [Example 171]
25	C[C@@H](Nc1nn(C)c(=O)c2cc(=O)n([C@@]34C[C@@H]3CN(C(=O)C3CC3)C4)cc12)c1cccc(C(F)F)c1F (single isomer, unassigned) [Example 141]
5.5	C[C@@H](Nc1nn(C)c(=O)c2cc(=O)n(C3(C)CN(C(=O)C4CC4)C3)cc12)c1cccc(C(F)F)c1F [Example 150, (R)-6-(1-(cyclopropanecarbonyl)-3-methylazetidin-3-yl)-4-((1-(3-(difluoromethyl)-2-fluorophenyl)ethyl)amino)-2-methyl-2,6-dihydropyrido[3,4-d]pyridazine-1,7-dione]
32.4	C[C@@H](Nc1nn(C)c(=O)c2cc(=O)n(C3(C(F)F)CCC3)cc12)c1cccc(C(F)F)c1F [Example 147, (R)-4-((1-(3-(difluoromethyl)-2-fluorophenyl)ethyl)amino)-6-(1-(difluoromethyl)cyclo-butyl)-2-methyl-2,6-dihydropyrido[3,4-d]pyridazine-1,7-dione]

The remaining lines, values behind:

SMILES	IC50 [nM]
C[C@@H](Nc1nn(C)c(=O)c2cc(=O)n([C@]3(C(F)(F)F)CCNC3)cc12)c1cccc(C(F)F)c1F (single isomer, unassigned) [Example 95]	394
C[C@H](Nc1nn(C)c(=O)c2cc(=O)n(C3CC3)cc12)c1cccc(C(F)(F)C(=O)N(C)C)c1F [Example 105, (S)-2-(3-(1-((6-cyclopropyl-2-methyl-1,7-dioxo-1,2,6,7-tetrahydropyrido[3,4-d]pyridazin-4-yl)amino)ethyl)-2-fluorophenyl)-2,2-difluoro-N,N-dimethylacetamide]	> 10000
C[C@@H](Nc1nn(C)c(=O)c2cc(=O)n([C@@H]3CC34CCC(F)(F)CC4)cc12)c1cccc(C(F)F)c1F (single isomer, unassigned) [Example 131]	277
C[C@@H](Nc1nn(C)c(=O)c2cc(=O)n([C@@H]3C[C@H]3c3cncc(F)c3)cc12)c1cccc(C(F)F)c1F (single isomer, unassigned) [Example 94]	378
C[C@@H](Nc1nn(C)c(=O)c2c(OCC3COC3)c(=O)n(C3(C(F)F)CC3)cc12)c1cccc(C(F)F)c1F [Example 90, (R)-4-((1-(3-(difluoromethyl)-2-fluorophenyl)ethyl)amino)-6-(1-(difluoromethyl)cyclopropyl)-2-methyl-8-(oxetan-3-ylmethoxy)-2,6-dihydropyrido[3,4-d]pyridazine-1,7-dione]	59.7
C[C@@H](Nc1nn(C)c(=O)c2cc(=O)n([C@]3(C(F)(F)F)CCOC3)cc12)c1cccc2c(F)coc12 (single isomer, unassigned) [Example 167]	607
C[C@@H](Nc1nn(C)c(=O)c2cc(=O)n([C@@]3(C(F)F)CCOC3)cc12)c1cccc(C(F)F)c1F (single isomer, unassigned) [Example 119]	411
C[C@@H](Nc1nn(C)c(=O)c2cc(=O)n([C@]3(C(F)(F)F)CCOC3)cc12)c1cccc2c1OCC2(F)F (single isomer, unassigned) [Example 169]	262
C[C@@H](Nc1nn(C)c(=O)c2cc(=O)n([C@@]3(C(F)(F)F)CCOC3)cc12)c1cccc2c1OCC2(F)F (single isomer, unassigned) [Example 168]	13.5
Cc1cnc(C(F)(F)c2cccc([C@@H](C)Nc3nn(C)c(=O)c4cc(=O)n(C5(C(F)F)CC5)cc34)c2F)cn1 [Example 176, (R)-4-((1-(3-(difluoro(5-methylpyrazin-2-yl)methyl)-2-fluorophenyl)ethyl)amino)-6-(1-(difluoromethyl)cyclopropyl)-2-methyl-2,6-dihydropyrido[3,4-d]pyridazine-1,7-dione]	20.1
C[C@@H](Nc1nn(C)c(=O)c2cc(=O)n([C@H]3CC34CC4)cc12)c1cccc(C(F)F)c1F (single isomer, unassigned) [Example 129]	112
C[C@@H](Nc1nn(C)c(=O)c2cc(=O)n([C@H]3CCC(F)(F)C3)cc12)c1cccc(C(F)F)c1F (single isomer, unassigned) [Example 121]	125
C[C@@H](Nc1nn(C)c(=O)c2cc(=O)n([C@H]3CC3(C)C)cc12)c1cccc(C(F)F)c1F (single isomer, unassigned) [Example 133]	245
CC(=O)N1CC(C(F)F)(n2cc3c(N[C@H](C)c4cccc(C(F)F)c4F)nn(C)c(=O)c3cc2=O)C1 [Example 154, (R)-6-(1-acetyl-3-(difluoromethyl)azetidin-3-yl)-4-((1-(3-(difluoromethyl)-2-fluorophenyl)ethyl)amino)-2-methylpyrido[3,4-d]pyridazine-1,7(2H,6H)-dione]	18.5
C[C@@H](Nc1nn(C)c(=O)c2cc(=O)n(C3CC3)cc12)c1ccc2c(c1)CCCC2 [Example 101, (R)-6-cyclopropyl-2-methyl-4-((1-(5,6,7,8-tetrahydronaphthalen-2-yl)ethyl)amino)-2,6-dihydropyrido[3,4-d]pyridazine-1,7-dione]	> 100000
C[C@H](Nc1nn(C)c(=O)c2cc(=O)n(C3(C(F)F)CC3)cc12)c1cccc2ccnn12 [Example 115, (S)-6-(1-(difluoromethyl)cyclopropyl)-2-methyl-4-((1-(pyrazolo[1,5-a]pyridin-7-yl)ethyl)amino)-2,6-dihydropyrido[3,4-d]pyridazine-1,7-dione]	> 10000
C[C@@H](Nc1nn(C)c(=O)c2c(O[C@H]3C[C@H](F)C3)c(=O)n(C3(C(F)F)CC3)cc12)c1cccc(C(F)F)c1F [Example 89, 4-(((R)-1-(3-(difluoromethyl)-2-fluorophenyl)ethyl)amino)-6-(1-(difluoromethyl)cyclopropyl)-8-((1r,3R)-3-fluorocyclobutoxy)-2-methylpyrido[3,4-d]pyridazine-1,7(2H,6H)-dione]	122
